pIC50: −log10 of the molar value.
Tests used:
[1] = test system: binge drinking of sweetened alcohol; conditions: Ji et al. 2007, in review; cited from earlier work
CRF2 receptors = assay: CRF receptor autoradiography, rat brain sections, CRF2-rich regions; type: binding
Experimental: For CRF receptor autoradiography, brain tissue was sectioned coronally (20 μm) using a cryostat (−17° C.). Sections were mounted on Superfrost Plus+ charged glass slides (Fisher Scientific, Pittsburgh, Pa.), permitted to dry completely, and stored in airtight boxes at −80° C. until the day of autoradiography. Autoradiography was performed using standard procedures based on the previous characterization of [^125I]Tyr^0-sauvagine [Grigoriadis et al., Mol. Pharmacol. (1996) 50:679-686].
Slides containing triplicate adjacent brain sections were thawed to room temperature and permitted to dry completely. Each section then was outlined using a PAP pen (Calbiochem, San Diego, Calif.). Sections were incubated in assay buffer (DPBS with 10 mM MgCl2, 2 mM EGTA, 1 tablet/100 ml protease inhibitor, 0.15% bovine serum albumin) for 15 minutes to remove endogenous ligand. Slides then were incubated under one of four conditions: (1) 0.2 nM […] to determine total binding; (2) 0.2 nM radiolabeled sauvagine+1 μM R121919 (below)
to determine non-CRF1 (e.g., CRF2) receptor binding; (3) 0.2 nM radiolabeled sauvagine+3 μM MPZP to determine non-CRF1 (e.g., CRF2) receptor binding using the experimental compound under study; (4) 0.2 nM radiolabeled sauvagine+0.3 μM unlabeled D-Phe-CRF12-41, a subtype-nonspecific CRF receptor antagonist, to determine non-CRF1/CRF2 (e.g., nonspecific binding).
After 2 hours incubation at room temperature, unbound radioligand was removed via a brief dip in ice-cold assay buffer, followed by two 5 minute rinses in ice-cold washing buffer (DPBS with 0.01% Triton-X100) and one brief dip in ice-cold distilled, deionized H2O. Slides then were dried at room temperature and exposed to Kodak Biomax MR film for 2 days. Unlabeled peptides (sauvagine, D-Phe-CRF12-41) were generously provided by Dr. Jean Rivier (The Salk Institute, La Jolla, Calif.). Images were captured using a light box and digital camera computer workstation using a MTI CCDC72 digital camera equipped with a 90 mm Tamron macro lens. […]

CRF1 receptors = molecular target: T1, CRF1 receptors (Rattus norvegicus, UniProt P35353); assay: [125I]-Tyr0-sauvagine competition binding, rat cerebellar membrane homogenates; parameters: from tissue; host or cells: rat cerebellum, membrane homogenate; conditions: read-out: IC50, displacement of specific [125I]-Tyr0-sauvagine binding
T1 sequence (P35353 24-415): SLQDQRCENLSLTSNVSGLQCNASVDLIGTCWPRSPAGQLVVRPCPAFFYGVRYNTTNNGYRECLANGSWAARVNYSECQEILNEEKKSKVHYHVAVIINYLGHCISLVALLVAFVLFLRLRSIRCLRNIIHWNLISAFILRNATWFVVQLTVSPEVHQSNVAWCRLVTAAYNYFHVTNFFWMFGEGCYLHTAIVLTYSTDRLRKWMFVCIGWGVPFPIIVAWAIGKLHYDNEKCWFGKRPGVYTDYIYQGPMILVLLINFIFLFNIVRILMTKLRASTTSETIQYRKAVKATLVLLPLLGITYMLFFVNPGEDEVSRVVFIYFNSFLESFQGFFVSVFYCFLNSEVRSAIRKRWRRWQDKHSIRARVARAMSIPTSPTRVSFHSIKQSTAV
Experimental: Binding activity of MPZP was determined in a competition assay using […] (2200 Ci/mmol; Perkin Elmer, Waltham, Mass.) as the radioligand. Cerebellum was homogenized in homogenizing buffer (Dulbecco's phosphate-buffered saline [PBS]:1.5 mM KH2PO4, 8.1 mM Na2HPO4, 2.7 mM KCl, 138 mM NaCl, pH 7.2, supplemented with 10 mM MgCl2, 2 mM EGTA) using a Polytron (Dispersing and Mixing Technology, Kinematica, Littau-Lucerne, Switzerland) at setting 6 for 2×15 seconds on ice. The homogenate was centrifuged at 45,000×g for 20 minutes at 4° C. The pellet was resuspended and spun at 45,000×g for 20 minutes at 4° C. The final pellet was resuspended in assay buffer (homogenizing buffer supplemented with protease inhibitor; 1 tablet/10 ml; Sigma CAT#58829-20TAB, St. Louis, Mo., pH 7.4) using a Polytron.
Med. Chem. (2000) 8:181-189], whose structural formula is shown below.
Total binding was determined using assay buffer in lieu of a CRF1 antagonist, and nonspecific binding was determined in the presence of 1 μM unlabeled sauvagine. The final radioligand concentration was 0.2 nM, and the reaction was incubated at room temperature for 2 hours. […] The pellet-containing tip was cut off and counted in an automated 10-detector gamma counter (MicroMedic Apex, ICN Biomedical, Costa Mesa, Calif.) at 80% efficiency. […]

[2] = test system: defensive burying model of active anxiety-like behavior; conditions: doses similar to 3.6-27.5 mg/kg; Fekete et al. 2003; cited from earlier work
[3] = test system: cocaine self-administration; assay: Cocaine self-administration in short access (ShA) and long access (LgA) rats; type: in vivo, rat; conditions: for cocaine intake compared with vehicle: 45 minutes before session

- displacement of [125I]-Tyr0-sauvagine binding from CRF2-rich regions (CRF2 receptors; 3 μM, rat lateral septum, ventromedial hypothalamus, choroid plexus, cerebral arterioles): did not displace
- specificity for CRF2 receptors (CRF2 receptors; at up to 1 μM concentrations): no measurable specificity
- displacement of [125I]-Tyr0-sauvagine binding (CRF2-like binding) (CRF2 receptors; rat lateral septum or ventromedial hypothalamus, concentration printed 1 mM): does not displace
- pIC50 (CRF1 receptors): 8.21
SMILES: COCCN(CCOC)c1cc(C)nc2c(-c3ccc(OC)cc3C)c(C)nn12 [MPZP, N,N-bis(2-methoxyethyl)-3-(4-methoxy-2-methylphenyl)-2,5-dimethyl-pyrazolo[1,5-a]pyrimidin-7-amine]
- nondependent binge drinking of sweetened alcohol [1]: had no effect
- anxiety-like behavior in the defensive burying test [2]: reduced anxiety-like behavior
- slope of linear trend dose function on cocaine intake ([3]; LgA rats): −0.601±0.176
- cocaine intake compared with vehicle ([3]; LgA rats, 10 mg/kg s.c.): significant decrease
- cocaine intake compared with vehicle ([3]; LgA rats, 27.5 mg/kg s.c.): significant decrease
- slope of linear trend dose function on cocaine intake ([3]; ShA rats): −0.254±0.106
- cocaine intake compared with vehicle ([3]; ShA rats, 27.5 mg/kg s.c.): significant decrease
